Measurements as given in paper PMC3248976 (Bioorganic & medicinal chemistry letters, 2011).

Columns and labels:
Type in all cases: cell-based
S1P3-R = S1P3-R (Homo sapiens, UniProt Q99500); test: S1P1–3,5-Rs selectivity counter screen, S1P3-R; details: mean of n = 3; NA = not active at concentrations up to 25 μM
S1P2-R = S1P2-R (Homo sapiens, UniProt O95136); test: S1P1–3,5-Rs selectivity counter screen, S1P2-R; details: mean of n = 3; NA = not active at concentrations up to 25 μM
S1P5-R = S1P5-R (Homo sapiens, UniProt Q9H228); test: S1P1–3,5-Rs selectivity counter screen, S1P5-R; details: mean of n = 3; NA = not active at concentrations up to 25 μM
Chain of S1P5-R (Q9H228 whole entry): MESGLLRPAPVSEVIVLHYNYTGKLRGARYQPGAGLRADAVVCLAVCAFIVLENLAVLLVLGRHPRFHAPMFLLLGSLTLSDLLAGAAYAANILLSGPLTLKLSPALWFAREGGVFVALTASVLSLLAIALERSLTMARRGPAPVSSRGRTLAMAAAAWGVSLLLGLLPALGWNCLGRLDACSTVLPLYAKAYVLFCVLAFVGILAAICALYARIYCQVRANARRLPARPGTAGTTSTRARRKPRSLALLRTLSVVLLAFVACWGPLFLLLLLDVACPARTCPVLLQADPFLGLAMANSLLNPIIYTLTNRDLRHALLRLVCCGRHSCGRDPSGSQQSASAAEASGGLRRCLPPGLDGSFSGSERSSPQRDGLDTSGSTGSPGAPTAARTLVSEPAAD

S1P1-R = S1P1-R (Homo sapiens, UniProt P21453); test: S1P1–3,5-Rs selectivity counter screen, S1P1-R; details: mean of n = 3; NA = not active at concentrations up to 25 μM
Chain of S1P1-R (P21453 whole entry): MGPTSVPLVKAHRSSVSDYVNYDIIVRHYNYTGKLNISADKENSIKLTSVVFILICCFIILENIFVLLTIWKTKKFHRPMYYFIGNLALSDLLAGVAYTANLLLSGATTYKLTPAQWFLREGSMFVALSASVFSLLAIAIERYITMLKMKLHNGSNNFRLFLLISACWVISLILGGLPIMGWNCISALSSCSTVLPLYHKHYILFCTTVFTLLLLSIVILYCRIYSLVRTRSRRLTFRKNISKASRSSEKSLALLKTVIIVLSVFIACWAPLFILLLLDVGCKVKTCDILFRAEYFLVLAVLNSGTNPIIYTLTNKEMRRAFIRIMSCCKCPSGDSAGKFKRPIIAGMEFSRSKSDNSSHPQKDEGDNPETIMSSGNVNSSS

[1] = target: T1, S1P4-R (human Endothelial Differentiation Gene 6; EDG6) (Homo sapiens, UniProt O95977); test: Tango S1P4-BLA U2OS beta-arrestin/beta-lactamase reporter agonist assay; details: for fold less potent than 22p: S1P4-R EC50 ratio vs 22p; for S1P4-R agonist activity in words: concentrations up to 25 μM; for fold decrease in potency compared to the hit 2 / fold more potent than the hit 2: S1P4-R EC50 ratio vs hit 2
T1 sequence (O95977 1-384): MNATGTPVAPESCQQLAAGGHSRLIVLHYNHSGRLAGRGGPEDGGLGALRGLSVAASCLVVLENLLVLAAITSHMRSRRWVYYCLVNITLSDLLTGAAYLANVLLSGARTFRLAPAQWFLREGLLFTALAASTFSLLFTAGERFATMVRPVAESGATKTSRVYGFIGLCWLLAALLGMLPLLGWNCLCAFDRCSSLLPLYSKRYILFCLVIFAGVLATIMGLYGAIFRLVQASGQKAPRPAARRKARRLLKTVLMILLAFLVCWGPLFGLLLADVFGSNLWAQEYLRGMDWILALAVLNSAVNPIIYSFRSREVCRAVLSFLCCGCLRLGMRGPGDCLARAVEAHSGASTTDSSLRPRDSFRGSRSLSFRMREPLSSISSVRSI

Chain of S1P3-R (Q99500 whole entry): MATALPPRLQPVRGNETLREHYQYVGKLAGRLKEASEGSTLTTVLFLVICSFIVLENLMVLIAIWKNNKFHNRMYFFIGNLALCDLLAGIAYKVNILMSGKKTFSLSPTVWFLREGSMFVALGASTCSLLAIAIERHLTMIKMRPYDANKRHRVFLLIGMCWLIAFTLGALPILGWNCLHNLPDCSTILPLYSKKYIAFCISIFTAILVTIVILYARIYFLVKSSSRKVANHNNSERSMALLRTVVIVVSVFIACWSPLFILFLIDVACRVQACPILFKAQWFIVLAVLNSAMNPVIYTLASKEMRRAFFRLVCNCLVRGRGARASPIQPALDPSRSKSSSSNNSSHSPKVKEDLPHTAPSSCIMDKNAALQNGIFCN
Chain of S1P2-R (O95136 whole entry): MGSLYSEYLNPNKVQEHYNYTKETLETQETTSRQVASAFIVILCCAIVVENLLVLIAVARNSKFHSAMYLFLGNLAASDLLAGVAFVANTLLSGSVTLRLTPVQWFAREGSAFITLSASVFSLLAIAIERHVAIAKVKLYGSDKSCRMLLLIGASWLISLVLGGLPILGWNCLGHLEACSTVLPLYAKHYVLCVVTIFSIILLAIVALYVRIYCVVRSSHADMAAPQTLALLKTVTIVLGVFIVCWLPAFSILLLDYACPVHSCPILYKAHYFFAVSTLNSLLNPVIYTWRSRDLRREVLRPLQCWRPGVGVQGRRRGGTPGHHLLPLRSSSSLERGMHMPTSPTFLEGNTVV

Compound: Cc1ccc(OCCOc2ccc(Cl)cc2Cl)c([N+](=O)[O-])n1 [compound 2, 3-(2-(2,4-dichlorophenoxy)ethoxy)-6-methyl-2-nitropyridine]
- EC50 nM, S1P3-R (S1P3-R): no agonistic activity
- EC50 nM, S1P2-R (S1P2-R): no agonistic activity
- EC50 nM, S1P5-R (S1P5-R): no agonistic activity
- EC50 nM, S1P1-R (S1P1-R): no agonistic activity

Compound: OCc1ccc(OCCOc2ccc(Cl)cc2Cl)c(I)n1 [22t]
- fold less potent than 22p [1]: 4 fold

Compound: Fc1ccc(OCCOc2ccc(Cl)cc2Cl)c(Br)n1 [22o]
- fold less potent than 22l ([1]; S1P4-R EC50 ratio vs 22l): 4 fold
- fold more potent than 22m ([1]; S1P4-R EC50 ratio vs 22m): 6 fold

Compound: Cc1ccc(OCCOc2ccccc2)c([N+](=O)[O-])n1 [8f]
- S1P4-R agonist activity in words [1]: complete loss of activity

Compound: Cc1ccc(OCCOc2ccccc2Cl)c([N+](=O)[O-])n1 [8a]
- S1P4-R agonist activity in words [1]: complete loss of activity

Compound: Cc1ccc(OCCCOc2ccc(Cl)cc2Cl)c([N+](=O)[O-])n1 [13a]
- S1P4-R agonist activity in words [1]: complete loss of activity

Compound: Cc1ccc(OCCOc2ccc(Br)cc2C(F)(F)F)c([N+](=O)[O-])n1 [8r]
- fold less potent than 8h ([1]; S1P4-R EC50 ratio vs 2-chloro analog 8h): 3 fold

Compound: Cc1ccc(OCCOc2cc(Cl)cc([N+](=O)[O-])c2)c([N+](=O)[O-])n1 [8q]
- fold decrease in potency compared to the hit 2 [1]: 22 fold

Compound: Clc1ccc(OCCOc2ccc(Br)nc2Br)c(Cl)c1 [22n]
- fold more potent than the hit 2 [1]: 3 fold

Compound: Cc1ccc(OCCCc2ccc(Cl)cc2Cl)c([N+](=O)[O-])n1 [13b]
- fold decrease in potency compared to the hit 2 [1]: 5–6 fold

Compound: Cc1ccc(OCCOc2ccc(Cl)cc2Cl)c([N+](=O)[O-])c1 [22c]
- fold decrease in potency compared to the hit 2 [1]: 8 fold

Compound: Cc1ccc(OCCOc2c(Cl)cc(Cl)cc2Cl)c([N+](=O)[O-])n1 [8s]
- fold decrease in potency compared to the hit 2 [1]: 3 fold

Compound: O=[N+]([O-])c1nc(Cl)ccc1OCCOc1ccc(Cl)cc1Cl [22d]
- fold decrease in potency compared to the hit 2 [1]: 2 fold

Compound: OCc1ccc(OCCOc2ccc(Cl)cc2Cl)c(Cl)n1 [22v]
- fold less active than the 2-iodine counterpart 22t ([1]; S1P4-R EC50 ratio vs 22t): 5 fold

Compound: Cc1ccc(OC(=O)COc2ccc(Cl)cc2Cl)c([N+](=O)[O-])n1 [13d]
- S1P4-R agonist activity in words [1]: complete loss of activity

Compound: O=[N+]([O-])c1ncccc1OCCOc1ccc(Cl)cc1Cl [22a]
- fold decrease in potency compared to the hit 2 [1]: 18 fold

Compound: Cc1ccc(OCCOc2ccc(Cl)cc2)c([N+](=O)[O-])n1 [8b]
- S1P4-R agonist activity in words [1]: complete loss of activity

Compound: FCc1ccc(OCCOc2ccc(Cl)cc2Cl)c(Cl)n1 [22aa]
- fold more potent than the hit 2 [1]: 3.5 fold

Compound: Cc1ccc(OCCOc2ccc(Cl)cc2Cl)c(Br)n1 [22l]
- fold more potent than the hit 2 [1]: 3 fold

Compound: O=Cc1ccc(OCCOc2ccc(Cl)cc2Cl)c(I)n1 [22u]
- fold less potent than 22p [1]: 38 fold
